Measured values as given in US7018840B2, “Fluorescent metal sensors, and methods of making and using the same” (Massachusetts Institute of Technology, priority 2001, dated 2006).

Legend:
[1] = Affinity of subject ligand for Zn2+; format: binding
From the text: Fluorescence Zn^2+ Binding Titration (Kd1). The first Kd associated with Zn^2+ binding will be measured by a fluorescence titration as described previously. Spectra of the subject ligand will be acquired by exciting at 490 nm or other suitable wavelength and collecting and integrating from 500–575 nm or other appropriate window. The measurements will be performed in triplicate to ensure accuracy of the Kd value.

[2] = known from the literature; cited from earlier work

Structure (SMILES) | affinity for Zn^2+ [1] | affinity and specificity for Zn^2+ over Mg^2+ and Ca^2+ [2]
O=C(O)c1ccccc1-c1c2cc(Cl)c(=O)cc-2oc2cc(N(Cc3ccccn3)Cc3ccccn3)ccc12 [compound 30, 9-(o-Carboxyphenyl)-2-chloro-6-[bis(2-pyridylmethyl)amino]-3-xanthanone] | weak | –
c1ccc(CN(CCN(Cc2ccccn2)Cc2ccccn2)Cc2ccccn2)nc1 [TPEN] | – | very high affinity and specificity
